# What was measured:
# PBMCs [1] = conditions: cited from earlier work
# Experimental: (§1) The human cathelicidin LL-37 has been previously shown to have a toxic effect on PBMCs at the concentration of 12 µM [20].
# [2] = system: Caco-2 polarized monolayer; conditions: cited from earlier work
# mature DCs = conditions: previous study; cited from earlier work
# Excerpt: In the next step of this work, we studied the immunomodulatory properties of NaD1 by using primary monocytes and monocyte-derived immature dendritic cells (DCs). DCs represent a type of antigen-presenting cells, playing a key role in adaptive immune response. Their primary functions involve phagocytosis, processing and presentation of captured antigens to T cells. In most tissues, they are present in a state known as “immature” DCs, unable to activate and stimulate T lymphocytes; their activation and maturation typically starts when DCs identify danger signals. This is why immature DCs ...
# primary monocytes = conditions: cited from earlier work
# Excerpt: Then, primary human monocytes were chosen to study the immunomodulatory properties of NaD1. Monocytes circulating in the blood can be recruited and extravasated into tissues during inflammatory processes. Moreover, the recruitment of monocytes to the sites of inflammation is critical for host defense not only when infected, but also in the case of sterile injury. In the case of monocytes, NaD1 at the same concentration induced a decrease of chemotactic CXCL1/GROα and CXCL8/IL-8 levels and elevation of the fibroblast growth factor 2 (FGF-2) production; however, these changes were ...
# [3] = system: THP-1-derived macrophages; experiment: ELISA assay of cytokine production by THP-1-derived macrophages; format: cell-based, human
# Experimental: THP-1 (ATCC TIB-202) cells were thawed and cultured in complete RPMI-1640, containing 10% FBS (Capricorn Scientific) and 1×AA solution in CO2-intubator. Monocytic THP-1 cells were differentiated into resting M0 macrophages by stimulation for 24 h with 100 ng/mL phorbol 12-myristate 13-acetate (PMA) in complete RPMI-1640. Then, the attached macrophage-like cells were washed out with culture medium without serum and incubated for another 48 h in PMA-free complete culture medium with 10% HS and 1×AA solution.
# THP-1-derived macrophages were seeded into the wells of a 24-well plate at a density of 2.7 × 10^5 cells/well in complete RPMI-1640 with 10% HS and 1×AA solution. Then, 24 h later, the culture medium was replaced by the fresh complete RPMI-1640 containing lipopolysaccharide from Escherichia coli 0111:B4 (LPS, Sigma, St. Louis, MO, USA) or zymosan from the cell wall of Saccharomyces cerevisiae (Serva, Heidelberg, Germany) at concentrations of 1 or 10 μg/mL, respectively; antimicrobial peptides NaD1, Psd1, LL-37 or HBD2 at concentrations of 2 or 0.2 µM; and combinations of antimicrobial peptides with LPS or zymosan at the same concentrations. Insoluble zymosan was resuspended in sterile water and sonicated twice for 30 s; after that, the stock solution was heated to 80 °C for 20 min. Peptides were added 2 h before stimulation with LPS and zymosan. After that, PAMPs solutions were added and the cells were cultured for 24 h. Complete RPMI-1640 only was used in the control wells. Culture supernatants were collected and stored at −70 °C prior to the cytokines’ assessment.
# The production of pro- and anti-inflammatory cytokines IL-1β, IL-6, TNF-α and IL-10 by stimulated and non-stimulated THP-1-derived macrophages were estimated by using ELISA kits (Vector-Best, Koltsovo, Russia). Briefly, 96-well plates with adsorbed monoclonal antibodies to the corresponding cytokine were used. Undiluted or diluted 5, 20 or 80 times in the case of IL-10, TNF-α and IL-1β or IL-6, respectively, culture supernatants from the wells of 24-well plates were taken for analysis. Biotinylated polyclonal antibodies to cytokines, streptavidin conjugated to HRP and TMB substrate were further used for the detection of immune complexes. A panel of calibration solutions containing different concentrations of cytokines was used in each experiment. Experiments were performed using two biological and two technical repeats. The release of the cytokines in the control and experimental samples was compared with an unpaired two-sample t-test using GraphPad Prism v.8.0.1 (GraphPad Software, Inc., San Diego, CA, USA). The p values ≤ 0.05 were considered significant.
# PBMCs [4] = experiment: Cytotoxicity assay, resazurin method, PBMCs; format: cell-based, human; conditions: PBMCs, peptide 2.5 µM, 24 h, resazurin
# Excerpt: Peripheral blood mononuclear cells (PBMCs) from healthy donors were purchased from American Type Culture Collection (ATCC PCS-800-011). Primary monocytes were isolated from PBMCs by adherence to the plastic surface. For that, PBMCs were thawed, resuspended in RPMI-1640 culture medium (Corning, Corning, NY, USA) without serum at a concentration of 2 × 10^6 cells/mL, seeded into the wells of a 24-well plate and placed in a humidified CO2-intubator (CellXpert C170i, Eppendorf, Hamburg, Germany) for 1 h. After that, non-adherent cells were removed from the wells and attached monocytes were thoroughly washed with PBS and cultured in a CO2-intubator in complete RPMI-1640 containing 10% human serum (HS Type AB, Capricorn Scientific, Ebsdorfergrund, Germany) and 1×antibiotic-antimycotic (1×AA) solution (Sigma, St. Louis, MO, USA).
# (§2) The cytotoxic effects of the tobacco defensin NaD1 towards PBMCs or Caco-2 cells were investigated in 96-well plates using the resazurin method as previously described. In brief, 4 × 10^5 per well Caco-2 cells not in a monolayer as well as Caco-2 cells in a monolayer in DMEM/F12 (1:1) medium with 10% FBS or 2 × 10^6 PBMCs per well in RPMI-1640 also with 10% FBS were incubated with serial dilutions of NaD1 at final concentrations from 0.39 to 50 μM or from 2.1 to 180 μM for 24 h. After that, resazurin (Sigma, St. Louis, MO, USA) was added at a final concentration of 70 µM and the plates were incubated overnight (16–18 h). Untreated cells and cells treated by non-ionogenic detergent Triton X-100 were used as negative and positive controls, respectively. […] The cell viability was estimated by resorufin fluorescence registered at […] via the following equation: cell viability (%) = (Fsample/Fcontrol) × 100%. Experiment was carried out twice in duplicate.
# [5] = system: Caco-2 cells in a monolayer; experiment: Cytotoxicity assay, resazurin method, Caco-2 cells in a monolayer; format: cell-based, human; conditions: Caco-2 monolayer, peptide 0.8 µM, 24 h
# Experimental: as §2
# THP-1 cells = conditions: peptide 1.2 µM; cited from earlier work
# Experimental: as §1
# [6] = peptide 2 µM 2 h before LPS 1 μg/mL, 24 h, vs LPS alone
# [7] = peptide 2 µM 2 h before zymosan 10 μg/mL, 24 h, vs zymosan alone
compound,measurement,setting,value
CC[C@H](C)[C@H](NC(=O)[C@H](CCCCN)NC(=O)[C@H](CCC(=O)O)NC(=O)[C@H](CCCCN)NC(=O)[C@H](CO)NC(=O)[C@H](CCCCN)NC(=O)[C@H](CCCNC(=N)N)NC(=O)[C@H](Cc1ccccc1)NC(=O)[C@H](Cc1ccccc1)NC(=O)[C@H](CC(=O)O)NC(=O)CNC(=O)[C@H](CC(C)C)NC(=O)[C@@H](N)CC(C)C)C(=O)NCC(=O)N[C@@H](CCCCN)C(=O)N[C@@H](CCC(=O)O)C(=O)N[C@@H](Cc1ccccc1)C(=O)N[C@@H](CCCCN)C(=O)N[C@@H](CCCNC(=N)N)C(=O)N[C@H](C(=O)N[C@H](C(=O)N[C@@H](CCC(N)=O)C(=O)N[C@@H](CCCNC(=N)N)C(=O)N[C@H](C(=O)N[C@@H](CCCCN)C(=O)N[C@@H](CC(=O)O)C(=O)N[C@@H](Cc1ccccc1)C(=O)N[C@@H](CC(C)C)C(=O)N[C@@H](CCCNC(=N)N)C(=O)N[C@@H](CC(N)=O)C(=O)N[C@@H](CC(C)C)C(=O)N[C@H](C(=O)N1CCC[C@H]1C(=O)N[C@@H](CCCNC(=N)N)C(=O)N[C@H](C(=O)N[C@@H](CCC(=O)O)C(=O)N[C@@H](CO)C(=O)O)[C@@H](C)O)C(C)C)[C@@H](C)CC)C(C)C)[C@@H](C)CC [LL-37],Toxic effect on PBMCs,PBMCs [1]; peptide 12 µM,toxic effect
"Psd1: Pea defensin Psd1 (UNIPROT P81929), obtained as described previously (KTCEHLADTYRGVCFTNASCDDHCKNKAHLISGTCHNWKCFCTQNC; UniProt P81929 1-46, looked up) [reference compound]",Papp A→B compared with NaD1,[2]; Psd1 value from earlier work,nearly the same
same,"Papp, secretory versus absorptive direction",[2],apparent permeability coefficients were higher in the secretory direction than in the absorptive one
same,Production of cytokines and chemokines by mature DCs,mature DCs,"induced an elevation of the production of cytokines IL-1RA, IL-5, IL-6, IL-10, IL-12, IL-15, IL-27 and TNFα and chemokines CXCL8/IL-8, CCL2/MCP-1 and CCL7/MCP-3"
same,Production of chemokines by monocytes,primary monocytes,increased the production of both CCL3/MIP-1α and CCL4/MIP-1β
same,Cytotoxic activity against PBMCs,PBMCs [1]; peptide 50 µM,no cytotoxic activity
same,LPS-induced IL-6 production,[3]; [6],increased the LPS-stimulated production of IL-6
same,LPS-induced IL-10 production,[3]; [6],increased the LPS-induced production of IL-10
same,LPS-induced TNF-α secretion,[3]; [6],reduced the LPS-induced secretion of TNF-α
same,IL-1β production in the presence of zymosan,[3]; [7],slightly reduced the production of IL-1β
same,IL-10 production in the presence of zymosan,[3]; [7],increased the production of IL-10 in the presence of zymosan
same,"IL-10 production, unstimulated macrophages","[3]; peptide 2 µM alone, vs unstimulated control",induced the production of IL-10
"CC[C@H](C)[C@H](NC(=O)CN)C(=O)NCC(=O)N[C@@H](C)C(=O)N[C@H](C(=O)N[C@@H](CC(C)C)C(=O)N[C@@H](CCCCN)C(=O)N[C@H](C(=O)N[C@@H](CC(C)C)C(=O)N[C@H](C(=O)N[C@H](C(=O)NCC(=O)N[C@@H](CC(C)C)C(=O)N1CCC[C@H]1C(=O)N[C@@H](C)C(=O)N[C@@H](CC(C)C)C(=O)N[C@H](C(=O)N[C@@H](CO)C(=O)N[C@@H](Cc1c[nH]c2ccccc12)C(=O)N[C@H](C(=O)N[C@@H](CCCCN)C(=O)N[C@@H](CCCNC(=N)N)C(=O)N[C@@H](CCCCN)C(=O)N[C@@H](CCCNC(=N)N)C(=O)N[C@@H](CCC(N)=O)C(=O)N[C@@H](CCC(N)=O)C(N)=O)[C@@H](C)CC)[C@@H](C)CC)[C@@H](C)O)[C@@H](C)O)C(C)C)C(C)C [melittin, reference compound]",Cell death,PBMCs [4],approximately 50%
same,Cell viability,[5],a decrease in cell viability was observed
"HBD2: Recombinant human β-defensin 2 (UNIPROT O15263), expressed in E. coli (GIGDPVTCLKSGAICHPVFCPRRYKQIGTCGLPGTKCCKKP; UniProt O15263 24-64, looked up) [reference compound]",Level of THP-1 cell death,THP-1 cells,did not increase the level of THP-1 cell death
same,LPS-induced IL-6 production,[3]; [6],increased the LPS-stimulated production of IL-6
same,Zymosan-induced IL-6 production,[3]; [7],slight decrease in the zymosan-induced production of IL-6
